How the values were obtained:
Format in all cases: in vivo
[1] = system: Echinochloa crus-galli; test: Post-emergence herbicidal activity, glasshouse pot test; parameters: key: 0 = no damage to plant, 5 = total damage to plant; settings: Application post-emergence, rate 1000 g/ha, evaluated after 13 days
Method in brief: (§1)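 After 8 days of glasshouse growth at 24/16 °C day/night, potted plants receive a foliar spray of the formulated compound (0.5% Tween 20 in acetone/water). They are then watered twice daily under unchanged conditions, and phytotoxicity is scored 0–5 after 13 days.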

[2] = system: Alopecurus myosuroides; test: as above; parameters: key: 0 = no damage to plant, 5 = total damage to plant; settings: Application post-emergence, rate 1000 g/ha, evaluated after 13 days
Method in brief: as §1

[3] = system: Setaria faberi; test: as above; parameters: key: 0 = no damage to plant, 5 = total damage to plant; settings: Application post-emergence, rate 1000 g/ha, evaluated after 13 days
Method in brief: as §1

[4] = system: Amaranthus retroflexus; test: as above; parameters: key: 0 = no damage to plant, 5 = total damage to plant; settings: Application post-emergence, rate 1000 g/ha, evaluated after 13 days
Method in brief: as §1

[5] = system: Abutilon theophrasti; test: as above; parameters: key: 0 = no damage to plant, 5 = total damage to plant; settings: Application post-emergence, rate 1000 g/ha, evaluated after 13 days
Method in brief: as §1

[6] = system: zea mays; test: as above; parameters: key: 0 = no damage to plant, 5 = total damage to plant; settings: Application post-emergence, rate 1000 g/ha, evaluated after 13 days
Method in brief: as §1

[7] = system: Echinochloa crus-galli; test: Pre-emergence herbicidal activity, glasshouse pot test; settings: pre-emergence spray, rate 1000 g/ha, evaluated after 13 days, scale 0-5
Method in brief: (§2)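 Sown pots sprayed pre-emergence (day 1), acetone/water + 0.5% Tween 20 vehicle. Damage rated 0–5 at 13 days.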

[8] = system: Alopecurus myosuroides; test: as above; settings: pre-emergence spray, rate 1000 g/ha, evaluated after 13 days, scale 0-5
Method in brief: as §2

[9] = system: Setaria faberi; test: as above; settings: pre-emergence spray, rate 1000 g/ha, evaluated after 13 days, scale 0-5
Method in brief: as §2

[10] = system: Amaranthus retroflexus; test: as above; settings: pre-emergence spray, rate 1000 g/ha, evaluated after 13 days, scale 0-5
Method in brief: as §2

[11] = system: Abutilon theophrasti; test: as above; settings: pre-emergence spray, rate 1000 g/ha, evaluated after 13 days, scale 0-5
Method in brief: as §2

[12] = system: zea mays; test: as above; settings: pre-emergence spray, rate 1000 g/ha, evaluated after 13 days, scale 0-5
Method in brief: as §2

Row | SMILES | ECHCG herbicidal damage score [1] | ALOMY herbicidal damage score [2] | SETFA herbicidal damage score [3] | AMARE herbicidal damage score [4] | ABUTH herbicidal damage score [5] | ZEAMX herbicidal damage score [6] | ECHCG damage score, application pre-emergence [7] | ALOMY damage score, application pre-emergence [8] | SETFA damage score, application pre-emergence [9] | AMARE damage score, application pre-emergence [10] | ABUTH damage score, application pre-emergence [11] | ZEAMX damage score, application pre-emergence [12]
1 | CC(=O)c1ccnc(N2C(=O)C(Cl)=C(C)C2O)c1 (stereo not drawn) [AF30] | 2 | 2 | 3 | 1 | 1 | 1 | 2 | 1 | 1 | 3 | 3 | 1
2 | CC1=C(Cl)C(=O)N(c2cc(N(C)C)ncn2)C1O (stereo not drawn) [CF20] | 4 | 4 | 5 | 5 | 4 | 0 | 3 | 1 | 1 | 3 | 0 | 2
3 | COC1=C(C)C(O)N(c2cc(C(C)(F)F)c(-c3cccnc3)nn2)C1=O (stereo not drawn) [BI21] | 4 | 4 | 4 | 5 | 3 | 1 | 2 | 2 | 3 | 2 | 2 | 0
4 | CCN(CC)C(=O)c1cnc(N2C(=O)C(Cl)=C(C)C2O)cc1C(F)(F)F (stereo not drawn) [AF96] | 0 | 0 | 0 | 0 | 0 | 1 | 0 | 0 | 0 | 0 | 0 | 0
5 | CC1=C(Cl)C(=O)N(c2cc(F)ccn2)C1O (stereo not drawn) [AF39] | 5 | 4 | 4 | 5 | 5 | 2 | 4 | 3 | 3 | 4 | 4 | 1
